# Measurements taken from paper PMC7900183 (2021).
# Assays:
# [1] = tested on: Apt5 (DNA, aptamer) GCGTAGATCGAGGCTATTAGGAGGTGGGATGCGTCAGGGC; assay: fluorescence enhancement; settings: 150 mM Na+; 61x enhancement; 1 µM DNA, 5 µM ThT; 50 mM Tris, pH 7.4
# [2] = tested on: Apt1 (DNA, aptamer) TCGCGTGTGCAGAGGCGAGTAGGTGGGAGATCTGTCTGGG; assay: fluorescence enhancement; settings: 150 mM Na+; 9x enhancement; 1 µM DNA, 5 µM ThT; 50 mM Tris, pH 7.4
# [3] = tested on: Primer-215 (DNA, single strand) ATGACCTATGAATTGACAGAC; assay: fluorescence enhancement; settings: no fluorescence; 5 µM ThT, 1 µM oligonucleotide; text says miR-215 (Primer-215)
# [4] = tested on: ThT.2-2 (DNA, aptamer) GACGACGACACAGGATTAATCTTATTAGTCGTC; assay: fluorescence enhancement; settings: less fluorescent than Apt5.9-32; several concentrations
# [5] = tested on: Apt5.1-24 (DNA, aptamer) GCGTAGATCGAGGCTATTAGGAGG; assay: fluorescence enhancement; settings: 150 mM Na+; less fluorescent than Apt5; 1 µM DNA, 5 µM ThT; 50 mM Tris, pH 7.4
# [6] = tested on: Apt4 (DNA, aptamer) GACCGGAGGGGCATCAGCTGTCCGTGAGGTTGCCGCGAGT; assay: fluorescence enhancement; settings: 150 mM Na+; 14x enhancement; 1 µM DNA, 5 µM ThT; 50 mM Tris, pH 7.4
# [7] = tested on: PW17Ext (DNA, G4) GAGGAGGAGGAGGAGAGGGTAGGGCGGGTTGGG; assay: fluorescence melting; settings: 150 mM Na+, 10 mM K+; 50 mM Tris, pH 7.4; complex more stable than without K+
# [8] = tested on: Apt5.17-40 (DNA, aptamer) TTAGGAGGTGGGATGCGTCAGGGC; assay: fluorescence enhancement; settings: 150 mM Na+; less fluorescent than Apt5; 1 µM DNA, 5 µM ThT; 50 mM Tris, pH 7.4
# [9] = tested on: Apt5.5-28 (DNA, aptamer) AGATCGAGGCTATTAGGAGGTGGG; assay: fluorescence enhancement; settings: 150 mM Na+; less fluorescent than Apt5; 1 µM DNA, 5 µM ThT; 50 mM Tris, pH 7.4
# [10] = tested on: Apt5.9-32 (DNA, aptamer) CGAGGCTATTAGGAGGTGGGATGC; assay: fluorescence titration, 510 nm; settings: 150 mM Na+; 50 mM Tris, pH 7.4; 1 µM ThT, aptamer 2.5-50 µM; mean of three
# [11] = tested on: Apt2 (DNA, aptamer) GACCGGAGGGGCATCAGCTGTCCGTGAGGTTGCCGCGAG; assay: fluorescence enhancement; settings: 150 mM Na+; 13x enhancement; 1 µM DNA, 5 µM ThT; 50 mM Tris, pH 7.4
# [12] = tested on: Apt5.13-36 (DNA, aptamer) GCTATTAGGAGGTGGGATGCGTCA; assay: fluorescence enhancement; settings: 150 mM Na+; less fluorescent than Apt5; 1 µM DNA, 5 µM ThT; 50 mM Tris, pH 7.4
# [13] = tested on: Apt3 (DNA, aptamer) GCACGTCCAGGACGGGGGAGCGGTGCTAGTGTCTGGCAGG; assay: fluorescence enhancement; settings: 150 mM Na+; 20x enhancement; 1 µM DNA, 5 µM ThT; 50 mM Tris, pH 7.4
structure (smiles),measurement,setting,value
Cc1ccc2c(c1)sc(-c1ccc(N(C)C)cc1)[n+]2C,binding,[1],yes
same,binding,[2],yes
same,binding,[3],no
same,binding,[4],yes
same,binding,[5],weak
same,binding,[6],yes
same,binding,[7],yes
same,binding,[8],weak
same,binding,[9],weak
same,dissociation constant,[10],6 ± 2 µM
same,binding,[11],yes
same,binding,[12],weak
same,binding,[13],yes
